The results in this text go back to US20230382904A1, “SUBSTITUTED 4-([1,2,4]TRIAZOLO[1,5-a]PYRIDIN-6-YL)THIOPHENE-2-CARBOXAMIDE DERIVATIVES AND USE THEREOF” (The Johns Hopkins University, priority 2020, published 2023).

Each structure is given as a SMILES string.

Assay [1] has as its target DLK (Homo sapiens (Human), UniProt Q12852). As to the kind of experiment: DLK biochemical assay (TR-FRET, MKK7 phosphorylation). The method, then: DLK assay is a biochemical assay format designed to screen for inhibitors of DLK. Enzymatic activity of DLK was measured by monitoring phosphorylation of the physiological substrate MKK7 (MAP2K7, Dual specificity mitogen-activated protein kinase kinase 7). Phosphorylation was detected by a TR-FRET system whereby His-tagged MKK7 was labeled by a XL665-labeled anti-His antibody (FRET acceptor, emission 665 nm). DLK phosphorylates MKK7 at T275/S277, which was detected by an Eu-labeled anti-phospho-MKK7 (T275/S277) antibody (F RET donor, excitation 340 nm). Phosphorylation of MKK7 results in an increased TR-FRET signal (Ratio XL665-channel/Eu-channel) and inhibition of enzymatic activity of DLK decreases the TR-FRET signal.
Assay Protocol for 1536 MTP format: test compounds were predispensed (60 nl) in test plates; +3 μl DLK solution (10 nM DLK, catalytic domain, Carna Biosiences, 0.6 mM DTT in assay buffer); +2 μl substrate solution (15 nM MKK7, LDB; 60 μM ATP; 0.4 mM DTT in assay buffer); 90 min incubation at RT; +2 μl detection mix (5 nM XL665-labeled anti-His antibody, Cisbio; 0.1 nM Eu-labeled anti-phospho-MKK7 (T275/S277), Cisbio/Millipore in detection buffer); 16 h incubation at 37° C.; endpoint measurement BMG (HTRF).
Assay Protocol for 384 low volume MTP format: 1 μl of test compounds were pipetted into test plate; +5 μl DLK solution (10 nM DLK, catalytic domain, Carna Biosiences in assay buffer); +5 μl substrate solution (15 nM MKK7, LDB; 60 μM ATP, in assay buffer); 90 min incubation at RT; +9 μl detection mix (20 nM XL665-labeled anti-His antibody, Cisbio; 0.4 nM Eu-labeled anti-phospho-MKK7 (T275/S277), Cisbio/Millipore in detection buffer); 16 h incubation at 4° C.; endpoint measurement BMG (HTRF).
(§1) All indicated concentrations final concentrations.
Assay buffer (384 format): 50 mM Hepes pH 7.5, 10 mM MgCl2, 1 mM EGTA, 1 mM DTT, 0,01% Triton X-100, 0.01% BSA, 1:500 Smart Block.
(§2) Detection buffer: 25 mM Tris/HCl pH 7.5, 100 mM EDTA, 100 mM NaCl, 200 mM KF, 0.01% Tween 20, 1:500 Smart Block.
Background: In TR-FRET formats the signal depends on donor and acceptor labels being close together.

Assay [2] concerns the target LZK (Homo sapiens (Human), UniProt O43283). As to the kind of experiment: LZK biochemical assay (TR-FRET, MKK7 phosphorylation). The method, then:
LZK assay is a biochemical assay format designed to screen for inhibitors of LZK. Enzymatic activity of LZK was measured by monitoring phosphorylation of the physiological substrate MKK7 (MAP2K7, Dual specificity mitogen-activated protein kinase kinase 7). Phosphorylation was detected by a TR-FRET system whereby His-tagged MKK7 was labeled by a XL665-labeled anti-His antibody (FRET acceptor, emission 665 nm). LZK phosphorylates MKK7 at T275/S277 which were detected by an Eu-labeled anti-phospho-MKK7 (T275/S277) antibody (FRET donor, excitation 340 nm). Phosphorylation of MKK7 results in an increased TR-FRET signal (Ratio XL665-channel/Eu-channel) and inhibition of enzymatic activity of LZK decreases the TR-FRET signal.
Assay Protocol for 384 low volume MTP format: 1 μl of test compound was pipetted into test plate; +5 μl LZK solution (10 nM LZK, catalytic domain, Carna Biosiences in assay buffer); +5 μl substrate solution (15 nM MKK7, LDB; 15 μM ATP, in assay buffer); 90 min incubation at RT; +5 μl detection mix (20 nM XL665-labeled anti-His antibody, Cisbio; 0.4 nM Eu-labeled anti-phospho-MKK7 (T275/S277), Cisbio/Millipore in detection buffer), 16 h incubation at 32° C.; endpoint measurement BMG (HTRF).
as §1
Assay buffer (384 format): 50 mM Hepes pH 7.5, 10 mM MgCl2, 1 mM EGTA, 1 mM DTT, 0.01% Triton X-100, 0.01% BSA, 1:500 Smart Block.
as §2

LZK, sequence (O43283 168-409): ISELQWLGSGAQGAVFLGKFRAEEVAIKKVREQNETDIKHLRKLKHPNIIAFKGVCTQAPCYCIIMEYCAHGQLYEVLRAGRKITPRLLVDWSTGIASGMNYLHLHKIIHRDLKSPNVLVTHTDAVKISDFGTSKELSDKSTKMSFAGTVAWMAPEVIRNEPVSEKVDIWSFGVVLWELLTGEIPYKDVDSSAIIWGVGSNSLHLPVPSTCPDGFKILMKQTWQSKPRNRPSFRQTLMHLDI
DLK, sequence (Q12852 1-520): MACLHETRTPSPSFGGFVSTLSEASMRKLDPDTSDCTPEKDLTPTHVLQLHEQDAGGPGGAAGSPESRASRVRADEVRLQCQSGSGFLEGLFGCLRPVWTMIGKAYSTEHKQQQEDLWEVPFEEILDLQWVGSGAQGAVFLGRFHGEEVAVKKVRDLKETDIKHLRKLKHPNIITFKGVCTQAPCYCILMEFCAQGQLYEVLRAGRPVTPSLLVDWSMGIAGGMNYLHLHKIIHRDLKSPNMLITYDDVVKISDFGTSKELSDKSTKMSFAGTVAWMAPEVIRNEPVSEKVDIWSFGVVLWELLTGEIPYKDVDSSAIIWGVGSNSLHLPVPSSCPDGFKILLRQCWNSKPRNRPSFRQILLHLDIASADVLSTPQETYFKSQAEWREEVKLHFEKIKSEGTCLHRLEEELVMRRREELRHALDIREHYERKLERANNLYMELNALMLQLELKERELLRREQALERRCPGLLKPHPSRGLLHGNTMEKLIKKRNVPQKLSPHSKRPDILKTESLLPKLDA

For orientation: IC50 means the concentration that gives 50% inhibition. As to `Nc1nc2ccc(-c3csc(C(=O)N[C@H](c4ccccc4)C(F)(F)F)c3)cn2n1` [Compound 326], the values for the IC50 in assay [1] and in assay [2] were 255 nM and over 30000 nM, respectively.
For `C[C@H](NC(=O)c1cc(-c2cc(C(=O)NC(C)(C)C)c3nc(N)nn3c2)cs1)c1ccccc1` [Compound 18], in that order: 12 nM and 110 nM.
For `Cc1ccc([C@H](C)NC(=O)c2cc(-c3cc(C(=O)NC(C)C)c4nc(N)nn4c3)cs2)cc1` [Compound 90], in that order: 21 nM and 490 nM.
For `CC[C@H](C)NC(=O)c1cc(-c2csc(C(=O)NCc3ccc(F)cc3)c2)cc2nc(N)nn12` [Compound 161], in that order: 21 nM and 43 nM.
As to `Cc1sc(C(=O)NC2CCCCC2)cc1-c1ccc2nc(N)nn2c1` [Compound 312], the IC50 in assay [1] and in assay [2] was over 30000 nM throughout.
`C[C@H](NC(=O)c1cc(-c2cc(C(F)(F)F)c3nc(N)nn3c2)cs1)c1ccc(F)cc1` [Compound 377]: the IC50 came out at 210 nM in assay [1] and 2400 nM in assay [2].
On the same counts, the results for `Cc1c(-c2ccc3nc(N)nn3c2)csc1C(=O)N[C@@H](C)c1ccc(F)cc1` [Compound 351] are 6400 nM and 20000 nM.
On the same counts, the results for `C[C@@H](NC(=O)c1cc(-c2ccc3nc(N)nn3c2)cs1)c1ccc(F)cc1` [Compound 298] are 350 nM and 4200 nM.
For `C[C@H](NC(=O)c1cc(-c2cc(C(=O)NC3CNC(=O)C3)c3nc(N)nn3c2)cs1)c1ccc(F)cc1` (mixture of isomers) [Compound 28], in that order: 3.4 nM and 110 nM.
As for `Nc1nc2cc(F)c(-c3csc(C(=O)NCc4ccc(F)cc4)c3)cn2n1` [Compound 300], the IC50 came out at 1100 nM in assay [1] and 3700 nM in assay [2].
On the same counts, the results for `Nc1nc2c(C(=O)NC3CCC3)cc(-c3csc(C(=O)NCc4ccccc4)c3)cn2n1` [Compound 52] are 20.5 nM and 235 nM.
For `Nc1nc2ccc(-c3csc(C(=O)NC(c4ccc(F)cc4)C(F)(F)F)c3)cn2n1` (stereo not shown) [Compound 336], in that order: 290 nM and over 30000 nM.
On the same counts, the results for `C[C@@H](NC(=O)c1cc(-c2ccc3nc(N)nn3c2)cs1)c1ccccc1` [Compound 325] are 280 nM and over 30000 nM.
In the case of `Nc1nc2ccc(-c3csc(C(=O)NCC4CCCCC4)c3)cn2n1` [Compound 187], the figures for the concentration for half-maximal inhibition (IC50) in assay [1] and in assay [2] were 710 nM and over 30000 nM, respectively.
For `CN1CCCCC1CNC(=O)c1cc(-c2ccc3nc(N)nn3c2)cs1` (stereo not shown) [Compound 230], in that order: 2500 nM and 28000 nM.
On the same counts, the results for `CCc1nnc(-c2cc(-c3csc(C(=O)NCc4ccc(F)cc4)c3)cn3nc(N)nc23)s1` [Compound 394] are 410 nM and 2500 nM.
For `COCCNC(=O)c1cc(-c2csc(C(=O)NCc3ccc(F)cc3)c2)cn2nc(N)nc12` [Compound 24], in that order: 69 nM and 630 nM.
Regarding `CC[C@H](C)NC(=O)c1cc(-c2csc(C(=O)N[C@@H](C)c3ccc(F)cc3)c2)cc2nc(N)nn12` [Compound 160], the IC50 in assay [1] came to 6.3 nM; in assay [2] it was 52 nM.
On the same counts, the results for `CC(C)(C)NC(=O)c1cc(-c2csc(C(=O)NCc3ccc(F)cc3)c2)cn2nc(N)nc12` [Compound 15] are 58 nM and 150 nM.
As to `Nc1nc2ccc(-c3csc(C(=O)NCc4cccs4)c3)cn2n1` [Compound 274], the IC50 in assay [1] came out at 260 nM; in assay [2], 11000 nM.
For `C[C@H]1CCC[C@H](NC(=O)c2cc(-c3ccc4nc(N)nn4c3)cs2)C1` (single isomer, unassigned) [Compound 198], in that order: 1250 nM and over 30000 nM.
On the same counts, the results for `Nc1nc2ccc(-c3csc(C(=O)NCc4ccc5c(c4)OCO5)c3)cn2n1` [Compound 295] are 390 nM and 14000 nM.
On to `COc1cc(CNC(=O)c2cc(-c3ccc4nc(N)nn4c3)cs2)ccn1` [Compound 234], for which the IC50 was 470 nM in assay [1] and 18000 nM in assay [2].
On the same counts, the results for `COc1cccc(CNC(=O)c2cc(-c3ccc4nc(N)nn4c3)cs2)c1` [Compound 182] are 133 nM and 25000 nM.
For `Cc1ccc([C@H](C)NC(=O)c2cc(-c3cc(C(=O)N[C@H]4CCOC4)c4nc(N)nn4c3)cs2)cc1` [Compound 106], in that order: 11 nM and 160 nM.
On the same counts, the results for `CC[C@H](NC(=O)c1cc(-c2cc(C(=O)N[C@@H](C)CC)c3nc(N)nn3c2)cs1)c1ccccc1` [Compound 89] are 3.7 nM and 51 nM.
Consider `CN(C(=O)c1cc(-c2ccc3nc(N)nn3c2)cs1)C1CCCCC1` [Compound 175], for which the IC50 was 9550 nM in assay [1] and over 30000 nM in assay [2].
For `Nc1nc2ccc(-c3csc(C(=O)Nc4ccccc4OC(F)F)c3)cn2n1` [Compound 288], in that order: 2400 nM and 20000 nM.
For `CC(C)NC(=O)c1cc(-c2csc(C(=O)NCC3CC3)c2)cn2nc(N)nc12` [Compound 128], in that order: 110 nM and 620 nM.
For `CCNC(=O)c1cc(-c2csc(C(=O)N[C@@H](CC)c3ccccc3)c2)cn2nc(N)nc12` [Compound 82], in that order: 12.5 nM and 455 nM.
For the molecule `Nc1nc2ccc(-c3csc(C(=O)NCc4cccc(OC5CC5)c4)c3)cn2n1` [Compound 205], the IC50 turned out to be 230 nM in assay [1] and 12000 nM in assay [2].
On the same counts, the results for `COC[C@H](NC(=O)c1cc(-c2cc(C(=O)N[C@H]3CCOC3)c3nc(N)nn3c2)cs1)c1ccccc1` [Compound 107] are 5.5 nM and 46 nM.
On the same counts, the results for `COc1ccc2c(c1)nc(CNC(=O)c1cc(-c3ccc4nc(N)nn4c3)cs1)n2C` [Compound 260] are 1200 nM and over 30000 nM.
For `CC(C)NC(=O)c1cc(-c2csc(C(=O)N[C@@H](C)c3ccccc3)c2)cn2nc(N)nc12` [Compound 20], in that order: 6.32 nM and 122 nM.
`CC(C)NS(=O)(=O)c1cc(-c2csc(C(=O)N[C@@H](C)c3ccc(F)cc3)c2)cn2nc(N)nc12` [Compound 384]: the IC50 in assay [1] and in assay [2] was over 30000 nM in each case.
As for `C[C@H](NC(=O)c1cc(-c2cc(C(=O)NC3CC3)c3nc(N)nn3c2)cs1)c1ccc(F)cc1` [Compound 45], the figures for the IC50 in assay [1] and in assay [2] were 24 nM and 430 nM, respectively.
Consider `C[C@H](NC(=O)c1cc(-c2cc(C(=O)NCC(F)(F)F)c3nc(N)nn3c2)cs1)c1ccccc1` [Compound 62], for which the IC50 in assay [1] stood at 120 nM; in assay [2] it was 10000 nM.
Take `Nc1nc2cc(-c3csc(C(=O)NCc4ccccc4)c3)ccn2n1` [Compound 365]: the results for the IC50 in assay [1] and in assay [2] were 500 nM and 11000 nM, respectively.
For `Nc1nc2ccc(-c3csc(C(=O)NCc4nc5ccccc5o4)c3)cn2n1` [Compound 246], in that order: 1140 nM and 4400 nM.
With `CC(NC(=O)c1cc(-c2ccc3nc(N)nn3c2)cs1)c1ccc(F)cc1F` (stereo not shown) [Compound 360], the IC50 was 400 nM in assay [1] and over 30000 nM in assay [2].
For `Cc1cccc2oc(CNC(=O)c3cc(-c4ccc5nc(N)nn5c4)cs3)nc12` [Compound 304], the IC50 in assay [1] worked out at 220 nM; in assay [2], 4300 nM.
